One block for each molecule: values may come before it.
Columns and labels:
WDR5 [1] = biological target: T1, WDR5 (Homo sapiens (Human), UniProt P61964); assay: TR-FRET binding assay, displacement of 10mer-Thr-FAM probe from His-tagged WDR5; conditions: Inhibition of WDR5 by TR-FRET assay
Experimental: The LanthaScreenTM Elite Tb-anti-HIS Antibody from ThermoFisher Scientific was used for this purpose. […] The ratio of the 520 and 495 signals are then utilized to generate a dose-response curve to calculate an IC50 value. […] WDR[…] tag protein is used at 2 nM.

MV4:11 cells = assay: Cellular viability / anti-proliferative activity, CellTiter-Glo, 7 day protocol; type: cell-based, human; conditions: 168 h
Experimental: Anti proliferative activity using MLL-harboring cell lines. MV4:11 cells are grown in RPMI-1640 media supplemented with 10% FBS and 1% penicillin/streptomycin. Viability assays are performed by dispensing […] into each well of an opaque 384-well plate and adding compounds at the indicated concentrations in a final volume of 32 μL and a final concentration of DMSO of 0.1% for all samples. After a set incubation period, 7 day protocol, the viability of cells in each well is assessed using the CellTiter-Glo assay (Promega), read on a GloMax 96 Microplane Luminometer (Promega). Serial dilutions of each cell type are included in all assays to generate standard curves and determine assay measurements are taken within the dynamic range of the instrument. GI50 values are calculated based on three biological replicates, each with three technical replicates. Data are expressed as mean plus/minus S.E.M.

WDR5 [2] = biological target: T1, WDR5; assay: Fluorescence polarization anisotropy (FPA) competition assay, displacement of FITC-MLL or 10mer-Thr-FAM peptide; type: binding; conditions: Table B2, WDR5 WIN-site binding affinity; values not less than 1 nM (FPA)
From the text: The assay is run in 384-well format and is read on a BioTek Cytation. […] Replicate values are fit to a 4-parameter fit in XLFit to generate a single IC50 value for each compound that is then converted to a Ki value. Experiments are repeated to generate a 2nd, independent Ki value; values from the two experiments are averaged to produce the reported Ki value for the compound.

[3] = cellular proliferation of MV4:11 human cancer cell lines, 7 day
[4] = Homo sapiens, MV4:11 leukemia cells after a 7 day incubation period

SMILES: Cc1ccnc(C(NC(=O)c2cc(CNC3=NCCC3)cc(-c3ccc(F)cc3C(F)(F)F)n2)C2CC2)c1 (centres unmarked) [Example 90, N-(Cyclopropyl(4-methylpyridin-2-yl)methyl)-4-(((3,4-dihydro-2H-pyrrol-5-yl)amino)methyl)-6-(4-fluoro-2-(trifluoromethyl)phenyl)picolinamide]
Ki (WDR5 [1]): 1.2 nM | GI50 (MV4:11 cells; [3]): 750 nM

SMILES: COc1cc(CN(C)C(=O)c2cc(CNC3=NCCC3)cc(-c3ccc(F)nc3C)c2)cc(OC)c1 [Example 56, 3-(((3,4-Dihydro-2H-pyrrol-5-yl)amino)methyl)-N-(3,5-dimethoxybenzyl)-5-(6-fluoro-2-methylpyridin-3-yl)-N-methylbenzamide]
Ki (WDR5 [1]): 20 nM | GI50 (MV4:11 cells; [3]): 6400 nM

SMILES: COc1cc(CNC(=O)c2cc(CNC3=NCCC3)cc(-c3ccc(F)nc3C)c2)cc(OC)c1 [Example 60, 3-(((3,4-Dihydro-2H-pyrrol-5-yl)amino)methyl)-N-(3,5-dimethoxybenzyl)-5-(6-fluoro-2-methylpyridin-3-yl)benzamide]
Ki (WDR5 [1]): 0.55 nM | GI50 (MV4:11 cells; [3]): 360 nM

SMILES: Cc1cc(CNC(=O)c2cc(CNC3=NCCC3)cc(-c3cccc(CO)c3)c2)ccc1Cl [Example 63, N-(4-Chloro-3-methylbenzyl)-5-(((3,4-dihydro-2H-pyrrol-5-yl)amino)methyl)-3′-(hydroxymethyl)-[1,1′-biphenyl]-3-carboxamide]
Ki (WDR5 [1]): 0.88 nM | GI50 (MV4:11 cells; [3]): 1900 nM

SMILES: CNc1c(C(=O)N(C)Cc2cc(OC)cc(OC)c2)cc(CNC2=NCCC2)cc1-c1ccc(F)cc1C [Example 170, 5-(((3,4-dihydro-2H-pyrrol-5-yl)amino)methyl)-N-(3,5-dimethoxybenzyl)-4′-fluoro-N,2′-dimethyl-2-(methylamino)-[1,1′-biphenyl]-3-carboxamide]
Ki (WDR5 [1]): 19 nM | GI50 (MV4:11 cells; [3]): 4700 nM

Ki (WDR5 [2]): 17.8 nM | GI50 (MV4:11 cells; [4]): > 30000 nM
SMILES: COc1cc(CNC(=O)c2cccc(CNC3=NCCN3)c2F)cc(OC)c1 [Example B21]

SMILES: Cc1cc(CNC(=O)c2cc(CNC3=NCCN3)cc(-c3ccc(F)nc3C)n2)ccc1Cl [Example 74, N-(4-Chloro-3-methylbenzyl)-4-(((4,5-dihydro-1H-imidazol-2-yl)amino)methyl)-6′-fluoro-2′-methyl-[2,3′-bipyridine]-6-carboxamide]
Ki (WDR5 [1]): 0.46 nM | GI50 (MV4:11 cells; [3]): 680 nM

SMILES: CNc1c(C(=O)N(C)Cc2cc(OC)cc(OC)c2)cc(CNC2=NCCN2)cc1-c1ccc(F)cc1C [Example 171, 5-(((4,5-Dihydro-1H-imidazol-2-yl)amino)methyl)-N-(3,5-dimethoxybenzyl)-4′-fluoro-N,2′-dimethyl-2-(methylamino)-[1,1′-biphenyl]-3-carboxamide]
Ki (WDR5 [1]): 19 nM | GI50 (MV4:11 cells; [3]): 3800 nM

Ki (WDR5 [2]): 4.01 nM | GI50 (MV4:11 cells; [4]): 3280 nM
SMILES: O=C(NCc1ccc(Cl)c(Cl)c1)c1ccc(F)c(CNC2=NCCN2)c1 [Example B6]

SMILES: COc1cc(CNC(=O)c2cc(CNC3=NCCN3)cc(-c3ccc(F)cc3C)c2NC(C)=O)cc(OC)c1 [Example 173, 2-Acetamido-5-(((4,5-dihydro-1H-imidazol-2-yl)amino)methyl)-N-(3,5-dimethoxybenzyl)-4′-fluoro-2′-methyl-[1,1′-biphenyl]-3-carboxamide]
Ki (WDR5 [1]): 7.2 nM | GI50 (MV4:11 cells; [3]): 530 nM

SMILES: CCn1cc(-c2cc(CNC(=N)C3CC3)cc(C(=O)N[C@H](c3ccc(F)c(C)c3)C3CC3)c2)c(C(F)(F)F)n1 [Example 105, (S)-3-(Cyclopropanecarboximidamidomethyl)-N-(cyclopropyl(4-fluoro-3-methylphenyl)methyl)-5-(1-ethyl-3-(trifluoromethyl)-1H-pyrazol-4-yl)benzamide]
Ki (WDR5 [1]): < 0.1 nM | GI50 (MV4:11 cells; [3]): 10 nM

SMILES: COc1cc(OC)cc(C(C)NC(=O)c2cc(CNC3=NCCC3)cc(-c3ccc(F)nc3C)c2)c1 (centres unmarked) [Example 55, 3-(((3,4-Dihydro-2H-pyrrol-5-yl)amino)methyl)-N-(1-(3,5-dimethoxyphenyl)ethyl)-5-(6-fluoro-2-methylpyridin-3-yl)benzamide]
Ki (WDR5 [1]): 11 nM | GI50 (MV4:11 cells; [3]): 440 nM

SMILES: COc1cc(CNC(=O)c2cc(CNC3=NCCN3)cc(-c3ccc(F)cc3C)c2N)cc(OC)c1 [Example 169, 2-Amino-5-(((4,5-dihydro-1H-imidazol-2-yl)amino)methyl)-N-(3,5-dimethoxybenzyl)-4′-fluoro-2′-methyl-[1,1′-biphenyl]-3-carboxamide]
Ki (WDR5 [1]): 6.1 nM | GI50 (MV4:11 cells; [3]): 14000 nM

SMILES: COc1cc(CNC(=O)c2cc(CNC3=NCCC3)cc(-c3ccc(F)cc3C)c2NC(C)=O)cc(OC)c1 [Example 172, 2-Acetamido-5-(((3,4-dihydro-2H-pyrrol-5-yl)amino)methyl)-N-(3,5-dimethoxybenzyl)-4′-fluoro-2′-methyl-[1,1′-biphenyl]-3-carboxamide]
Ki (WDR5 [1]): 2.1 nM | GI50 (MV4:11 cells; [3]): 240 nM

SMILES: COc1cc(CNC(=O)c2cc(CNC3=NCCC3)cc(-c3ccc(F)cc3C)c2N)cc(OC)c1 [Example 168, 2-Amino-5-(((3,4-dihydro-2H-pyrrol-5-yl)amino)methyl)-N-(3,5-dimethoxybenzyl)-4′-fluoro-2′-methyl-[1,1′-biphenyl]-3-carboxamide]
Ki (WDR5 [1]): 5.2 nM | GI50 (MV4:11 cells; [3]): 4800 nM

SMILES: CCn1cc(-c2cc(CNC(=N)C3CCC3)cc(C(=O)N[C@H](c3ccc(F)c(C)c3)C3CC3)c2)c(C(F)(F)F)n1 [Example 106, (S)-3-(Cyclobutanecarboximidamidomethyl)-N-(cyclopropyl(4-fluoro-3-methylphenyl)methyl)-5-(1-ethyl-3-(trifluoromethyl)-1H-pyrazol-4-yl)benzamide]
Ki (WDR5 [1]): < 0.1 nM | GI50 (MV4:11 cells; [3]): 30 nM

Source: patent US10807959B2, “WDR5-MLL1 inhibitors and modulators” (Vanderbilt University, priority 2018, dated 2020)
